For 57 compounds, inhibition results are on record in ChEMBL document CHEMBL3880421, “Indazole compounds and pharmaceutical compositions for inhibiting protein kinases, and methods for their use” (2003).

The inhibition is the change of the read-out against control, counted positive when it falls.

Test [1] can be described thus: Antiproliferative activity against VEGF-stimulated HUVEC cells assessed as reduction in cell viability at 0.5 nM preincubated for 1 hr followed by addition of VEGF measured after 72 hrs by MTT assay. It counts as functional. To be noted: Homo sapiens.
A short description of test [2]: Antiproliferative activity against VEGF-stimulated HUVEC cells assessed as reduction in cell viability at 2 nM preincubated for 1 hr followed by addition of VEGF measured after 72 hrs by MTT assay. It counts as functional. To be noted: Homo sapiens. (In general: Tetrazolium dyes change colour on reduction, which living cells bring about.)

For `O=C(Nc1cc[nH]n1)c1ccccc1Nc1ccc2c(/C=C/c3ccccn3)n[nH]c2c1`, the inhibition at 0.0005 µM in test [1] was 20%. For the same compound, the inhibition at 0.002 µM in test [2] is 25%.
The like results for `CN(C)c1ccc(CNC(=O)c2ccccc2Nc2ccc3c(/C=C/c4ccccn4)n[nH]c3c2)cc1` were, in that order, 32% and 24%.
The matching figures for `CN(C)CC(=O)NNC(=O)c1ccccc1Nc1ccc2c(/C=C/c3ccccn3)n[nH]c2c1`: 41% and 16%.
The matching figures for `O=C(NCCCN1CCOCC1)c1ccccc1Nc1ccc2c(/C=C/c3ccccn3)n[nH]c2c1`: 5% and 14%.
Take `CCNC(=O)c1ccccc1Nc1ccc2c(/C=C/c3ccccn3)n[nH]c2c1`: the inhibition at 0.0005 µM in test [1] was 16%. Moreover, in test [2], the inhibition at 0.002 µM came out at 17%.
The matching figures for `Cc1csc(NC(=O)c2ccccc2Nc2ccc3c(/C=C/c4ccccn4)n[nH]c3c2)n1`: 15% and 95%.
The matching figures for `Cc1ncc(CNC(=O)c2ccccc2Nc2ccc3c(/C=C/c4ccccn4)n[nH]c3c2)c(N)n1`: 16% and 17%.
Take `O=C(NC1CCSC1=O)c1ccccc1Nc1ccc2c(/C=C/c3ccccn3)n[nH]c2c1` (centres undefined): the inhibition at 0.0005 µM in test [1] was found to be 25%. For the same compound, the inhibition at 0.002 µM in test [2] was 40%.
The matching figures for `CCN(CC)CCNC(=O)c1ccccc1Nc1ccc2c(/C=C/c3ccccn3)n[nH]c2c1`: 39% and 15%.
As for `CC(C)c1ccc(CNC(=O)c2ccccc2Nc2ccc3c(/C=C/c4ccccn4)n[nH]c3c2)cc1`, in test [1], the inhibition at 0.0005 µM was determined as 23%. Also, in test [2], the inhibition at 0.002 µM was 51%.
The matching figures for `O=C(NC1CCCCCCC1)c1ccccc1Nc1ccc2c(/C=C/c3ccccn3)n[nH]c2c1`: 14% and 60%.
The matching figures for `O=C(NCCCCc1ccccc1)c1ccccc1Nc1ccc2c(/C=C/c3ccccn3)n[nH]c2c1`: 51% and 67%.
The like results for `O=C(N[C@H](CO)Cc1c[nH]cn1)c1ccccc1Nc1ccc2c(/C=C/c3ccccn3)n[nH]c2c1` were, in that order, 22% and 24%.
For `CCOC(CNC(=O)c1ccccc1Nc1ccc2c(/C=C/c3ccccn3)n[nH]c2c1)OCC`, in test [1], the inhibition at 0.0005 µM was 11%. In test [2], the inhibition at 0.002 µM worked out at 47%.
The like results for `O=C(NCCN1CCNCC1)c1ccccc1Nc1ccc2c(/C=C/c3ccccn3)n[nH]c2c1` were, in that order, 37% and 12%.
The matching figures for `O=C(NNCCO)c1ccccc1Nc1ccc2c(/C=C/c3ccccn3)n[nH]c2c1`: 33% and 18%.
`NC(=O)NNC(=O)c1ccccc1Nc1ccc2c(/C=C/c3ccccn3)n[nH]c2c1`: in test [1], the inhibition at 0.0005 µM came out at 19%. Moreover, in test [2], the inhibition at 0.002 µM turned out to be 5%.
The matching figures for `N#CC1CCC(CNC(=O)c2ccccc2Nc2ccc3c(/C=C/c4ccccn4)n[nH]c3c2)CC1` (centres undefined): 36% and 66%.
The matching figures for `COC(CNC(=O)c1ccccc1Nc1ccc2c(/C=C/c3ccccn3)n[nH]c2c1)OC`: 47% and 89%.
The like results for `O=C(NN1CCCC1)c1ccccc1Nc1ccc2c(/C=C/c3ccccn3)n[nH]c2c1` were, in that order, 17% and 23%.
As to `O=C(NCCCN1CCCC1=O)c1ccccc1Nc1ccc2c(/C=C/c3ccccn3)n[nH]c2c1`, the inhibition at 0.0005 µM in test [1] was 25%. Besides, the inhibition at 0.002 µM in test [2] amounted to 35%.
As to `O=C(NNC(=O)c1ccccc1Nc1ccc2c(/C=C/c3ccccn3)n[nH]c2c1)c1ccco1`, the inhibition at 0.0005 µM in test [1] turned out to be 26%. Moreover, the inhibition at 0.002 µM in test [2] was determined as 71%.
The like results for `O=C(Nc1ccon1)c1ccccc1Nc1ccc2c(/C=C/c3ccccn3)n[nH]c2c1` were, in that order, 6% and 16%.
The like results for `CONC(=O)c1ccccc1Nc1ccc2c(/C=C/c3ccccn3)n[nH]c2c1` were, in that order, 62% and 99%.
The like results for `CCCCCC(C)NC(=O)c1ccccc1Nc1ccc2c(/C=C/c3ccccn3)n[nH]c2c1` (centres undefined) were, in that order, -1% and 14%.
With `CN1CCN(CCCNC(=O)c2ccccc2Nc2ccc3c(/C=C/c4ccccn4)n[nH]c3c2)CC1`, in test [1], the inhibition at 0.0005 µM amounted to 0%. Besides, the inhibition at 0.002 µM in test [2] is 4%.
The like results for `CN(NC(=O)c1ccccc1Nc1ccc2c(/C=C/c3ccccn3)n[nH]c2c1)c1ccccc1` were, in that order, 16% and 37%.
The like results for `Cc1cc(NC(=O)c2ccccc2Nc2ccc3c(/C=C/c4ccccn4)n[nH]c3c2)n(C)n1` were, in that order, 39% and 13%.
With `CCOCCNC(=O)c1ccccc1Nc1ccc2c(/C=C/c3ccccn3)n[nH]c2c1`, in test [1], the inhibition at 0.0005 µM came out at 53%. The inhibition at 0.002 µM in test [2] worked out at 75%.
For the compound `CCN(CC)CCCC(C)NC(=O)c1ccccc1Nc1ccc2c(/C=C/c3ccccn3)n[nH]c2c1` (centres undefined), the inhibition at 0.0005 µM in test [1] came to 3%. Also, in test [2], the inhibition at 0.002 µM turned out to be 15%.
The like results for `Cc1noc(NC(=O)c2ccccc2Nc2ccc3c(/C=C/c4ccccn4)n[nH]c3c2)c1C` were, in that order, 15% and 36%.
The like results for `O=C(Nn1cnnc1)c1ccccc1Nc1ccc2c(/C=C/c3ccccn3)n[nH]c2c1` were, in that order, 17% and 13%.
The like results for `CS(=O)(=O)NNC(=O)c1ccccc1Nc1ccc2c(/C=C/c3ccccn3)n[nH]c2c1` were, in that order, 9% and 1%.
On to `Cc1ccc(CNC(=O)c2ccccc2Nc2ccc3c(/C=C/c4ccccn4)n[nH]c3c2)o1`, for which the inhibition at 0.0005 µM in test [1] was found to be 56%. Besides, the inhibition at 0.002 µM in test [2] was 96%.
The like results for `CC(C)(CO)CNC(=O)c1ccccc1Nc1ccc2c(/C=C/c3ccccn3)n[nH]c2c1` were, in that order, 8% and 22%.
The like results for `CC(C)(C)ONC(=O)c1ccccc1Nc1ccc2c(/C=C/c3ccccn3)n[nH]c2c1` were, in that order, -3% and 64%.
The matching figures for `C[N+]12CC[C@@H]1C(NC(=O)c1ccccc1Nc1ccc3c(/C=C/c4ccccn4)n[nH]c3c1)C2` (some centres undefined): 15% and -9%.
Consider `CN(C)CCCCNC(=O)c1ccccc1Nc1ccc2c(/C=C/c3ccccn3)n[nH]c2c1`, for which the inhibition at 0.0005 µM in test [1] amounted to 23%. The inhibition at 0.002 µM in test [2] is 16%.
For the compound `CC1CCC(NC(=O)c2ccccc2Nc2ccc3c(/C=C/c4ccccn4)n[nH]c3c2)CC1` (centres undefined), in test [1], the inhibition at 0.0005 µM was -11%. For the same compound, the inhibition at 0.002 µM in test [2] was 42%.
`CCCC(CCC)NC(=O)c1ccccc1Nc1ccc2c(/C=C/c3ccccn3)n[nH]c2c1`: the inhibition at 0.0005 µM in test [1] was determined as 1%. For the same compound, in test [2], the inhibition at 0.002 µM turned out to be 52%.
The like results for `CCN(CCNC(=O)c1ccccc1Nc1ccc2c(/C=C/c3ccccn3)n[nH]c2c1)c1cccc(C)c1` were, in that order, 17% and 1%.
The matching figures for `O=C(NC1CCc2ccccc21)c1ccccc1Nc1ccc2c(/C=C/c3ccccn3)n[nH]c2c1` (centres undefined): 19% and 86%.
`Cc1ccc(N(C)NC(=O)c2ccccc2Nc2ccc3c(/C=C/c4ccccn4)n[nH]c3c2)nn1`: the inhibition at 0.0005 µM in test [1] came out at 18%. Moreover, in test [2], the inhibition at 0.002 µM is -3%.
The like results for `CC(NC(=O)c1ccccc1Nc1ccc2c(/C=C/c3ccccn3)n[nH]c2c1)c1ccccc1` (centres undefined) were, in that order, 30% and 94%.
The like results for `O=C(NNc1ccccc1)c1ccccc1Nc1ccc2c(/C=C/c3ccccn3)n[nH]c2c1` were, in that order, 18% and 29%.
The matching figures for `CC(C)(C)c1cc(NC(=O)c2ccccc2Nc2ccc3c(/C=C/c4ccccn4)n[nH]c3c2)no1`: 15% and 4%.
For the compound `O=C(NNC(=O)c1ccccc1Nc1ccc2c(/C=C/c3ccccn3)n[nH]c2c1)c1ccc[nH]1`, in test [1], the inhibition at 0.0005 µM came out at 60%. Besides, the inhibition at 0.002 µM in test [2] stood at 99%.
The like results for `CSc1nc(NC(=O)c2ccccc2Nc2ccc3c(/C=C/c4ccccn4)n[nH]c3c2)nn1C` were, in that order, 16% and 2%.
For the compound `O=C(NC1CCC1)c1ccccc1Nc1ccc2c(/C=C/c3ccccn3)n[nH]c2c1`, the inhibition at 0.0005 µM in test [1] was 42%. Also, the inhibition at 0.002 µM in test [2] is 80%.
Take `O=C(NCc1ccccn1)c1ccccc1Nc1ccc2c(/C=C/c3ccccn3)n[nH]c2c1`: the inhibition at 0.0005 µM in test [1] stood at 6%. The inhibition at 0.002 µM in test [2] was 43%.
Take `O=C(NCCN1CCNC1=O)c1ccccc1Nc1ccc2c(/C=C/c3ccccn3)n[nH]c2c1`: the inhibition at 0.0005 µM in test [1] turned out to be 5%. The inhibition at 0.002 µM in test [2] is 1%.
Regarding `O=C(NCCCCO)c1ccccc1Nc1ccc2c(/C=C/c3ccccn3)n[nH]c2c1`, in test [1], the inhibition at 0.0005 µM came out at 35%. In test [2], the inhibition at 0.002 µM came to 40%.
Take `CCCCC(CC)NC(=O)c1ccccc1Nc1ccc2c(/C=C/c3ccccn3)n[nH]c2c1` (centres undefined): the inhibition at 0.0005 µM in test [1] came to 31%. Further, the inhibition at 0.002 µM in test [2] was 30%.
On to `CC(CO)NC(=O)c1ccccc1Nc1ccc2c(/C=C/c3ccccn3)n[nH]c2c1` (centres undefined), for which the inhibition at 0.0005 µM in test [1] came to 19%. The inhibition at 0.002 µM in test [2] is 28%.
With `CC(C)C(C)NC(=O)c1ccccc1Nc1ccc2c(/C=C/c3ccccn3)n[nH]c2c1` (centres undefined), the inhibition at 0.0005 µM in test [1] is 19%. Besides, in test [2], the inhibition at 0.002 µM is 55%.
Turning to `CCC(CO)NC(=O)c1ccccc1Nc1ccc2c(/C=C/c3ccccn3)n[nH]c2c1` (centres undefined), the inhibition at 0.0005 µM in test [1] turned out to be 22%. The inhibition at 0.002 µM in test [2] amounted to 23%.
Consider `N#CCCNNC(=O)c1ccccc1Nc1ccc2c(/C=C/c3ccccn3)n[nH]c2c1`, for which the inhibition at 0.0005 µM in test [1] was determined as 44%. In addition, in test [2], the inhibition at 0.002 µM was determined as 5%.
